Reference: patent US8815241B2, “Use of combination of anti-angiogenic substance and c-kit kinase inhibitor” (Eisai R&D Management Co., Ltd., priority 2005, dated 2014)

Test system: Human gastrointestinal stromal tumor cell line GIST882
Assay: Human cancer cell line subcutaneous xenograft model (GIST882 in nude mouse), combined use
Type: in vivo
Conditions: once a day, for two weeks, orally
Procedure: Human gastrointestinal stromal tumor cell line GIST882 (supplied by The Brigham and Women's Hospital, Inc.) was cultured in RPMI1640 (containing 10% FBS) in a 5% carbon dioxide incubator to about 80% confluence. Following cultivation, each cell was collected by trypsin-EDTA treatment according to a general method. Using a phosphate buffer containing 50% matrigel, 5×10^7 cells/mL suspension was prepared, and 0.2 mL each of the resulting cell suspension was subcutaneously transplanted into the flank of a nude mouse. Starting from twenty-one days after the transplantation, 4-(3-chloro-4-(cyclopropylaminocarbonyl)aminophenoxy)-7-methoxy-6-quinolinecarboxamide (10 mg/kg or 30 mg/kg, once a day, for two weeks) and imatinib (160 mg/kg, twice a day, for two weeks) were orally administered alone or in combination. […] Tumor Volume (TV)=Major axis of tumor (mm)×(Minor axis of tumor)^2 (mm^2)/2 Relative Tumor Volume (RTV)=Tumor volume on measurement day/Tumor volume on the first administration day

## COc1cc2nccc(Oc3ccc(NC(=O)NC4CC4)c(Cl)c3)c2cc1C(N)=O [Compound A, 4-(3-chloro-4-(cyclopropylaminocarbonyl)aminophenoxy)-7-methoxy-6-quinolinecarboxamide]
Compound A 10 mg/kg alone
  Relative tumor volume on Day 15, Average ± standard deviation: 2.06 ± 0.16
Compound A 30 mg/kg alone
  Relative tumor volume on Day 15, Average ± standard deviation: 1.36 ± 0.13
